Test results from patent US20130065227A1, “METHODS OF INCREASING MACROPINOCYTOSIS IN CANCER CELLS” (priority 2010, published 2013).

What was measured:
MCF10A = assay: Stimulation of macropinocytosis (dextran uptake); assay type: cell-based, human; conditions: MCF-10A, 10 μM for 48 hr or 72 hr
Experimental: FIG. 10 are graphs showing the stimulation of macropinocytosis by GROs. Breast carcinoma cells (MDA-MB-231, MCF-7) or non-malignant breast epithelial cells (MCF10A) cells were plated 18 hr before treatment with 10 μM tAS1411 or 10 μM tCRO or water in complete DMEM medium at 37° C. for 48 hr or 72 hr. After treatment, cell medium was changed for fresh complete medium containing 0.2 mg/ml dextran-10K labeled with Alexa Fluor 488 and cells were incubated for 30 min at 37° C. Cells were then incubated on ice with 1 mg/ml PI in PBS, harvested, and analyzed by flow cytometry. Uptake was normalized to no pre-treatment controls and bars show the mean and SE of three independent experiments. […]
(§1) AS1411 causes a change in cancer cell morphology that is characterized by vacuolization, irregular nuclei, and swollen cells (Xu et al., 2001, J. Biol. Chem., 276:43221-30). […] To test this idea, DU145 cells were pre-treated for 24 h with tAS1411, then added FL-AS1411 and evaluated uptake after an additional 2 h using flow cytometry. […] This idea is not necessarily inconsistent with the time course data shown in FIG. 1A because the fluorescence signal may decrease over time for a number of reasons, including exocytosis of the ligand and fluorescence quenching due to protein binding or environmental factors (the fluorophore used for flow cytometry is particularly sensitive to acidic environments). […]

DU145 cells = assay: FL-AS1411 uptake after tAS1411 pre-treatment (flow cytometry); assay type: cell-based; conditions: 10 μM pre-treatment for 24 h, then 10 μM FL-AS1411 2 h
Experimental: FIG. 6 are graphs showing that nucleolin regulates AS1411-induced stimulation of macropinocytosis. DU145 cells were untreated (no transfection) or transfected, without siRNA (mock), or with 30 nM of one of three different nucleolin siRNAs (NCL1, NCL2, NCL3) or a control siRNA (scramble). 48 h after transfection, cells were incubated with 10 μM tAS1411, 10 μM tCRO, or no oligonucleotide in complete DMEM medium at 37° C. for 24 h. (Panel A) After treatment, cell medium was changed for fresh complete medium containing 0.2 mg/ml dextran-10K labeled with Alexa Fluor 488 (green) and incubated for 30 min at 37° C. […] After incubation, cells were harvested and analyzed by flow cytometry. Mean fluorescence was normalized to “not transfected” control (Panel A) or to no pre-treatment control (Panel B). […]
FIG. 12 are graphs showing the effectiveness of pre-treatment of cells with a GRO. […] After incubation, cells were incubated on ice with 1 mg/ml PI in PBS, harvested, fixed and immediately analyzed by flow cytometry. […]
AS1411 causes a change in cancer cell morphology that is characterized by vacuolization, irregular nuclei, and swollen cells (Xu et al., 2001, J. Biol. Chem., 276:43221-30). […] To test this idea, DU145 cells were pre-treated for 24 h with tAS1411, then added FL-AS1411 and evaluated uptake after an additional 2 h using flow cytometry. […]

DU145 = assay: Stimulation of macropinocytosis (dextran uptake); assay type: cell-based
Experimental: (Panel A) DU145 cells were treated with 10 μM tAS1411 or 10 μM tCRO or no oligonucleotide in complete DMEM medium at 37° C. for the time indicated. After treatment, cell medium was changed for fresh complete medium containing 0.2 mg/ml dextran-10K labeled with Alexa Fluor 488, and cells were incubated for 30 min at 37° C. After incubation, cells were harvested and analyzed by flow cytometry to determine dextran uptake. (Panel B) The same experiment was performed using Hs27 cells. (Panel C) DU145 cells were treated with 10 μM tAS1411 or 10 μM tCRO or no oligonucleotide in complete DMEM medium at 37° C. for 48 h. After treatment, cell medium was changed for fresh complete medium containing 0.2 mg/ml dextran-10K tagged with Alexa Fluor 488, and cells were incubated for 30 min at 37° C. Then, cells were washed with cold PBS, added PBS containing 5 μg/ml PI and incubated on ice for 5 min. After washing with cold PBS, cells were fixed and the distribution of macropinocytic marker was visualized by confocal microscopy. The nucleus was stained with DAPI (blue). Scale bars, 10 μm. All experiments have been repeated at least three times. Data are mean of three independent samples; bars, SE; *(p<0.05).
FIG. 6 are graphs showing that nucleolin regulates AS1411-induced stimulation of macropinocytosis. DU145 cells were untreated (no transfection) or transfected, without siRNA (mock), or with 30 nM of one of three different nucleolin siRNAs (NCL1, NCL2, NCL3) or a control siRNA (scramble). 48 h after transfection, cells were incubated with 10 μM tAS1411, 10 μM tCRO, or no oligonucleotide in complete DMEM medium at 37° C. for 24 h. (Panel A) After treatment, cell medium was changed for fresh complete medium containing 0.2 mg/ml dextran-10K labeled with Alexa Fluor 488 (green) and incubated for 30 min at 37° C. (Panel B) After treatment, some cells were washed, fresh complete medium containing 10 μM FL-AS1411 added and incubated for 2 h at 37° C. After incubation, cells were harvested and analyzed by flow cytometry. Mean fluorescence was normalized to “not transfected” control (Panel A) or to no pre-treatment control (Panel B). All experiments have been repeated at least three times. Data are the mean of three independent samples; bars, SE; *(p<0.05).
FIG. 11 is a graph showing a comparison between AS1411 and tAS1411 in the ability to stimulate macropinocytosis. DU145 cells were plated 18 hr before treatment with different concentrations (0, 5, 10, or 15 μM) of AS1411, tAS1411 or tCRO in complete DMEM medium at 37° C. for 48 h. After treatment, cell medium was changed for fresh complete medium containing 0.2 mg/ml dextran-10K labeled with Alexa Fluor 488, and cells were incubated for 30 min at 37° C. After incubation, cells were incubated on ice with […] PI in PBS, harvested, fixed and immediately analyzed by flow cytometry.
(§2) To analyze uptake of the oligodeoxynucleotides or dextran-10K (macropinocytic marker) by flow cytometry, 2×10^5 cells in fresh supplemented culture medium (2.5 ml) were plated into 6-well plates for 18 h. After complete adhesion, the cells were incubated with 5′-FAM tagged oligodeoxynucleotides or Alexa Fluor 488 tagged dextran-10K and incubated as indicated in the Description of the Drawings. Cells were washed once with ice-cold PBS, incubated with 1 μg/ml 7-amino-actinomycin D (7-AAD) for 5 min on ice or 1 μg/ml propidium iodide (PI), and washed twice with ice-cold PBS. Cells were then treated with 0.01% trypsin/0.5 mM EDTA (300 μl) for 3 min prior addition 3 ml supplemented culture medium. The cells were then centrifuged and resuspended in 0.5 ml of 1% paraformaldehyde for analysis by flow cytometry using a FACScalibur cytometer (BD Biosciences, Mountain View, Calif.).
AS1411 causes a change in cancer cell morphology that is characterized by vacuolization, irregular nuclei, and swollen cells (Xu et al., 2001, J. Biol. Chem., 276:43221-30). […]

Hs27 = assay: Stimulation of macropinocytosis (dextran uptake); assay type: cell-based, human; conditions: 10 μM for 24, 48, or 72 h, flow cytometry
Experimental: (Panel A) DU145 cells were treated with 10 μM tAS1411 or 10 μM tCRO or no oligonucleotide in complete DMEM medium at 37° C. for the time indicated. After treatment, cell medium was changed for fresh complete medium containing 0.2 mg/ml dextran-10K labeled with Alexa Fluor 488, and cells were incubated for 30 min at 37° C. After incubation, cells were harvested and analyzed by flow cytometry to determine dextran uptake. (Panel B) The same experiment was performed using Hs27 cells. (Panel C) DU145 cells were treated with 10 μM tAS1411 or 10 μM tCRO or no oligonucleotide in complete DMEM medium at 37° C. for 48 h. […]
as §1

MCF7 = assay: Stimulation of macropinocytosis (dextran uptake); assay type: cell-based; conditions: MCF-7, 10 μM for 48 hr or 72 hr
Experimental: (§3) FIG. 10 are graphs showing the stimulation of macropinocytosis by GROs. Breast carcinoma cells (MDA-MB-231, MCF-7) or non-malignant breast epithelial cells (MCF10A) cells were plated 18 hr before treatment with 10 μM tAS1411 or 10 μM tCRO or water in complete DMEM medium at 37° C. for 48 hr or 72 hr. After treatment, cell medium was changed for fresh complete medium containing 0.2 mg/ml dextran-10K labeled with Alexa Fluor 488 and cells were incubated for 30 min at 37° C. Cells were then incubated on ice with 1 mg/ml PI in PBS, harvested, and analyzed by flow cytometry. Uptake was normalized to no pre-treatment controls and bars show the mean and SE of three independent experiments.
as §2
(§4) AS1411 causes a change in cancer cell morphology that is characterized by vacuolization, irregular nuclei, and swollen cells (Xu et al., 2001, J. Biol. Chem., 276:43221-30). Therefore, the effect of AS1411 on macropinocytosis in DU145 cells and non-malignant Hs27 cells was investigated. […] As in all of the flow cytometry experiments, cells were gated to exclude permeable cells, discounting the possibility that this increase was due to cell death. […] One implication of the finding that AS1411 causes hyperstimulation of macropinocytosis is that treatment of AS1411 might actually promote its own internalization by cancer cells. To test this idea, DU145 cells were pre-treated for 24 h with tAS1411, then added FL-AS1411 and evaluated uptake after an additional 2 h using flow cytometry. […] This idea is not necessarily inconsistent with the time course data shown in FIG. 1A because the fluorescence signal may decrease over time for a number of reasons, including exocytosis of the ligand and fluorescence quenching due to protein binding or environmental factors (the fluorophore used for flow cytometry is particularly sensitive to acidic environments). […]

MDA-MB-231 = assay: Stimulation of macropinocytosis (dextran uptake); assay type: cell-based; conditions: MDA-MB-231, 10 μM for 48 hr or 72 hr
Experimental: as §3, §2, §4

Hs27 cells = assay: FL-AS1411 uptake after tAS1411 pre-treatment (flow cytometry); assay type: cell-based, human; conditions: 10 μM pre-treatment for 24 h, then 10 μM FL-AS1411 2 h
Experimental: FIG. 12 are graphs showing the effectiveness of pre-treatment of cells with a GRO. DU145 or Hs27 cells were treated with or without 10 μM tAS1411 in complete DMEM medium at 37° C. for 24 h. After treatment, cells were washed, fresh complete medium containing 10 μM FL-AS1411 was added, and cells were incubated for a further 2 h at 37° C. After incubation, cells were incubated on ice with 1 mg/ml PI in PBS, harvested, fixed and immediately analyzed by flow cytometry.
To analyze uptake of the oligodeoxynucleotides or dextran-10K (macropinocytic marker) by flow cytometry, 2×10^5 cells in fresh supplemented culture medium (2.5 ml) were plated into 6-well plates for 18 h. […]
AS1411 causes a change in cancer cell morphology that is characterized by vacuolization, irregular nuclei, and swollen cells (Xu et al., 2001, J. Biol. Chem., 276:43221-30). […] To test this idea, DU145 cells were pre-treated for 24 h with tAS1411, then added FL-AS1411 and evaluated uptake after an additional 2 h using flow cytometry. […] This idea is not necessarily inconsistent with the time course data shown in FIG. 1A because the fluorescence signal may decrease over time for a number of reasons, including exocytosis of the ligand and fluorescence quenching due to protein binding or environmental factors (the fluorophore used for flow cytometry is particularly sensitive to acidic environments).

5′-d(TTTGGTGGTGGTGGTTGTGGTGGTGGTGG) [tAS1411]
stimulation of macropinocytosis (MCF10A): much reduced effect
uptake of FL-AS1411 after pre-treatment (DU145 cells): increase in the uptake of FL-AS1411
uptake of the macropinocytic marker, dextran, after treatment (DU145; 10 μM for 24, 48, or 72 h, flow cytometry): significant increment in the uptake of the macropinocytic marker, dextran
dextran uptake by confocal microscopy (DU145; 10 μM for 48 h, versus untreated or CRO-treated cells): higher dextran uptake confined in large vesicle
uptake of the macropinocytic marker, dextran, after treatment (Hs27): no increase
stimulation of macropinocytosis (MCF7): induce hyperstimulation of macropinocytosis
stimulation of macropinocytosis (MDA-MB-231): induce hyperstimulation of macropinocytosis
uptake of FL-AS1411 after pre-treatment (Hs27 cells): no comparable increase
